From BindingDB's records for doi:10.1021/cc9800374 (Smithkline Beecham Pharmaceuticals, 1999)

Experiments:
Cathepsin K = target: T1, Cathepsin K (Homo sapiens, UniProt P43235); test: Inhibition Assay; settings: pH 5.5
T1 sequence (P43235 whole entry): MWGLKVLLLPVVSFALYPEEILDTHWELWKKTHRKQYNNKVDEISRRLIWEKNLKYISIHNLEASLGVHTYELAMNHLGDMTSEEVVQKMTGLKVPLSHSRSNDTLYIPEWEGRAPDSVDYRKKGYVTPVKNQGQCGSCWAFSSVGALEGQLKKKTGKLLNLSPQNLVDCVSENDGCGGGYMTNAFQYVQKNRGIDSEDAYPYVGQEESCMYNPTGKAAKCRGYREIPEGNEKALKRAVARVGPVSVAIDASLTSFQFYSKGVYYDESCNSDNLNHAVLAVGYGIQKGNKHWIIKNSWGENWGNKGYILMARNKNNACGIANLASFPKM
Protocol: (§1) Inhibitors were assayed against human liver Cathepsin L and B. Inhibitors were also evaluated for inhibition against purified recombinant Cathepsin K.

Cathepsin L = Cathepsin L (Homo sapiens, UniProt Q6LAF7); test: Inhibition Assay; settings: pH 5.5
Protocol: as §1

Sequence of Cathepsin L (Q6LAF7 whole entry): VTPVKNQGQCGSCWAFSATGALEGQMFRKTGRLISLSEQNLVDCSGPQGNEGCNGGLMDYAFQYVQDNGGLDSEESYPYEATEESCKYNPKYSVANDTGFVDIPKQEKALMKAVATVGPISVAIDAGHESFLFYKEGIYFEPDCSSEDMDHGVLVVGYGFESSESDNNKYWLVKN

SMILES | Ki (Cathepsin K) | Ki (Cathepsin L)
CC(NC(=O)[C@@H](NC(=O)c1ccc2ccccc2n1)C(C)C)C(=O)CNC(=O)Cc1cccc(-c2ccccn2)c1 (stereo partly specified) [Cathepsin Inhibitor, Column 5 Row 3] | 830 nM | > 1000 nM
CC(NC(=O)[C@@H](NC(=O)c1ccc(C(F)(F)F)cc1)C(C)C)C(=O)CNC(=O)Cc1cccc(-c2ccccn2)c1 (stereo partly specified) [Cathepsin Inhibitor, Column 2 Row 3] | 430 nM | > 1000 nM
CC(NC(=O)[C@H](Cc1ccccc1)NC(=O)c1cc2ccccc2s1)C(=O)CNC(=O)Cc1cccc(-c2ccccn2)c1 (stereo partly specified) [Cathepsin Inhibitor, Column 6 Row 2] | 16 nM | 18 nM
CC(=O)N[C@H](C(=O)NC(C)C(=O)CNC(=O)Cc1cccc(-c2ccccn2)c1)C(C)C (stereo partly specified) [Cathepsin Inhibitor, Column 1 Row 3] | > 1000 nM | > 1000 nM
CC(NC(=O)[C@H](Cc1ccccc1)NC(=O)c1ccc2ccccc2n1)C(=O)CNC(=O)Cc1cccc(-c2ccccn2)c1 (stereo partly specified) [Cathepsin Inhibitor, Column 5 Row 2] | 170 nM | 110 nM
CC(C)C[C@H](NC(=O)c1cc2ccccc2s1)C(=O)NC(C)C(=O)CNC(=O)Cc1cccc(-c2ccccn2)c1 (stereo partly specified) [Cathepsin Inhibitor, Column 6 Row 1] | 1.3 nM | 90 nM
CC(NC(=O)[C@H](Cc1ccccc1)NC(=O)c1ccc(C(F)(F)F)cc1)C(=O)CNC(=O)Cc1cccc(-c2ccccn2)c1 (stereo partly specified) [Cathepsin Inhibitor, Column 2 Row 2] | 90 nM | 120 nM
CC(C)C[C@H](NC(=O)c1ccc2ccccc2n1)C(=O)NC(C)C(=O)CNC(=O)Cc1cccc(-c2ccccn2)c1 (stereo partly specified) [Cathepsin Inhibitor, Column 5 Row 1] | 1.7 nM | 130 nM
CC(=O)N[C@@H](CC(C)C)C(=O)NC(C)C(=O)CNC(=O)Cc1cccc(-c2ccccn2)c1 (stereo partly specified) [Cathepsin Inhibitor, Column 1 Row 1] | 200 nM | > 1000 nM
CC(C)C[C@H](NC(=O)c1ccc(C(F)(F)F)cc1)C(=O)NC(C)C(=O)CNC(=O)Cc1cccc(-c2ccccn2)c1 (stereo partly specified) [Cathepsin Inhibitor, Column 2 Row 1] | 8.4 nM | 230 nM
CC(NC(=O)[C@@H](NC(=O)c1cc2ccccc2s1)C(C)C)C(=O)CNC(=O)Cc1cccc(-c2ccccn2)c1 (stereo partly specified) [Cathepsin Inhibitor, Column 6 Row 3] | 300 nM | > 1000 nM
COc1ccc(C(=O)N[C@H](C(=O)NC(C)C(=O)CNC(=O)Cc2cccc(-c3ccccn3)c2)C(C)C)cc1OC (stereo partly specified) [Cathepsin Inhibitor, Column 3 Row 3] | > 1000 nM | > 1000 nM
CC(=O)N[C@@H](Cc1ccccc1)C(=O)NC(C)C(=O)CNC(=O)Cc1cccc(-c2ccccn2)c1 (stereo partly specified) [Cathepsin Inhibitor, Column 1 Row 2] | > 1000 nM | > 1000 nM
COc1ccc(C(=O)N[C@@H](CC(C)C)C(=O)NC(C)C(=O)CNC(=O)Cc2cccc(-c3ccccn3)c2)cc1OC (stereo partly specified) [Cathepsin Inhibitor, Column 3 Row 1] | 7.4 nM | 150 nM
COc1ccc(C(=O)N[C@@H](Cc2ccccc2)C(=O)NC(C)C(=O)CNC(=O)Cc2cccc(-c3ccccn3)c2)cc1OC (stereo partly specified) [Cathepsin Inhibitor, Column 3 Row 2] | 25 nM | 53 nM
CC(NC(=O)[C@@H](NC(=O)c1ccc2ncccc2c1)C(C)C)C(=O)CNC(=O)Cc1cccc(-c2ccccn2)c1 (stereo partly specified) [Cathepsin Inhibitor, Column 4 Row 3] | > 1000 nM | > 1000 nM
CC(NC(=O)[C@H](Cc1ccccc1)NC(=O)c1ccc2ncccc2c1)C(=O)CNC(=O)Cc1cccc(-c2ccccn2)c1 (stereo partly specified) [Cathepsin Inhibitor, Column 4 Row 2] | 170 nM | 36 nM
CC(C)C[C@H](NC(=O)c1ccc2ncccc2c1)C(=O)NC(C)C(=O)CNC(=O)Cc1cccc(-c2ccccn2)c1 (stereo partly specified) [Cathepsin Inhibitor, Column 4 Row 1] | 18 nM | 130 nM
